Test results published in patent US9175003B2, “Substituted azoanthracene derivatives and intermediates for preparation thereof” (TransTech Pharma, LLC, priority 2009, dated 2015).

biological target: human GLP-1 receptor (Homo sapiens (Human), UniProt P43220); settings: read-out: Mean EC50; cAMP, HTRF detection, 30 min at 37° C., HEK-293 cells expressing cloned human GLP-1 receptor
Sequence (P43220 24-463): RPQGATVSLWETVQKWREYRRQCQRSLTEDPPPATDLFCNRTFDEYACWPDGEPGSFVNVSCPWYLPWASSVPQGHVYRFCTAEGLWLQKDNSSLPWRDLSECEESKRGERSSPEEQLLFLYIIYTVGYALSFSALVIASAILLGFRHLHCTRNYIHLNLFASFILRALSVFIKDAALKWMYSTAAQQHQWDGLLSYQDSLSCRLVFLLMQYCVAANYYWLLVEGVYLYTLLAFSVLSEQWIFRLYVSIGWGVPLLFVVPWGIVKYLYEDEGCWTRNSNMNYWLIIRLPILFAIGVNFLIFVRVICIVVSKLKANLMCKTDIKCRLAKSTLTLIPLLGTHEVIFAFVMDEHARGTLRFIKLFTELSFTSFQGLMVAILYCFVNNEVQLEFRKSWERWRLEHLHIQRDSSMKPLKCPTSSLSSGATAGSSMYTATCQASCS

Structure (SMILES)	EC50 [nM]
Cc1nc(C(=O)N2Cc3cc4c(cc3C[C@H]2C(=O)N[C@@H](Cc2ccc(-c3ccnc(C)c3C)cc2)C(=O)O)OC[C@H](c2ccc(OCC3CCCC3)cc2)O4)c(C)o1 [Example 379, (S)-2-{[(3S,8S)-3-(4-cyclopentylmethoxy-phenyl)-7-(2,5-dimethyl-oxazole-4-carbonyl)-2,3,6,7,8,9-hexahydro-[1,4]dioxino[2,3-g]isoquinoline-8-carbonyl]-amino}-3-[4-(2,3-dimethyl-pyridin-4-yl)-phenyl]-propionic acid]	152
Cc1sc(N)nc1S(=O)(=O)N1Cc2cc3c(cc2C[C@H]1C(=O)N[C@@H](Cc1ccc(-c2ccc(C#N)cc2)cc1)C(=O)O)OCC(c1ccc(OCc2ccc(Cl)c(Cl)c2)cc1)O3 (stereo in doubt) [Example 95, (S)-2-({(S)-7-(2-Amino-5-methyl-thiazole-4-sulfonyl)-3-[4-(3,4-dichloro-benzyloxy)-phenyl]-2,3,6,7,8,9-hexahydro-[1,4]dioxino[2,3-g]isoquinoline-8-carbonyl}-amino)-3-(4′-cyano-biphenyl-4-yl)-propionic acid]	462
Cc1nccc(-c2ccc(C[C@H](NC(=O)[C@@H]3Cc4cc5c(cc4CN3C(=O)N[C@H](C)c3ccc(F)cc3)O[C@@H](c3ccc(OCc4ccc(Cl)c(Cl)c4)cc3)CO5)C(=O)O)cc2)c1C [Example 247, (S)-2-({(3S,8S)-3-[4-(3,4-Dichloro-benzyloxy)-phenyl]-7-[(R)-1-(4-fluoro-phenyl)-ethylcarbamoyl]-2,3,6,7,8,9-hexahydro-[1,4]dioxino[2,3-g]isoquinoline-8-carbonyl}-amino)-3-[4-(2,3-dimethyl-pyridin-4-yl)-phenyl]-propionic acid]	175
Cc1nccc(-c2ccc(C[C@H](NC(=O)[C@@H]3Cc4cc5c(cc4CN3C(=O)N[C@H](C)c3ccccc3)O[C@@H](c3ccc(O[C@H]4CC[C@H](C(C)(C)C)CC4)cc3)CO5)C(=O)O)cc2)c1C [Example 389, (S)-2-{[(3S,8S)-3-[4-(trans-4-tert-Butyl-cyclohexyloxy)-phenyl]-7-((R)-1-phenyl-ethylcarbamoyl)-2,3,6,7,8,9-hexahydro-[1,4]dioxino[2,3-g]isoquinoline-8-carbonyl]-amino}-3-[4-(2,3-dimethyl-pyridin-4-yl)-phenyl]-propionic acid]	191

Now those with a lower EC50, led by results:

EC50 [nM]	Structure (SMILES)
15	Cc1nccc(-c2ccc(C[C@H](NC(=O)[C@@H]3Cc4cc5c(cc4CN3C(=O)[C@H]3CCCN3C(=O)OC(C)(C)C)O[C@@H](c3ccc(OCc4ccc(Cl)c(Cl)c4)cc3)CO5)C(=O)O)cc2)c1C [Example 279, (R)-2-{(3S,8S)-8-{(S)-1-Carboxy-2-[4-(2,3-dimethyl-pyridin-4-yl)-phenyl]-ethylcarbamoyl}-3-[4-(3,4-dichloro-benzyloxy)-phenyl]-2,3,8,9-tetrahydro-6H-[1,4]dioxino[2,3-g]isoquinoline-7-carbonyl}-pyrrolidine-1-carboxylic acid tert-butyl ester]
145	CC[C@@H](c1ccccc1)N1Cc2cc3c(cc2C[C@H]1C(=O)N[C@@H](Cc1ccc(-c2ccnc(C)c2C)cc1)C(=O)O)OC[C@H](c1ccc(OC2CC4CCC2C4)cc1)O3 (stereo partly drawn) [Example 173, (S)-2-{[(3S,8S)-3-[4-(Bicyclo[2.2.1]hept-2-yloxy)-phenyl]-7-((S)-1-phenyl-propyl)-2,3,6,7,8,9-hexahydro-[1,4]dioxino[2,3-g]isoquinoline-8-carbonyl]-amino}-3-[4-(2,3-dimethyl-pyridin-4-yl)-phenyl]-propionic acid]
21	CC[C@@H](c1ccccc1)N1Cc2cc3c(cc2C[C@H]1C(=O)N[C@@H](Cc1ccc(-c2ccnc4ccccc24)cc1)C(=O)O)OC[C@H](c1ccc(OCc2ccc(Cl)c(Cl)c2)cc1)O3 [Example 211, (S)-2-{[(3S,8S)-3-[4-(3,4-Dichloro-benzyloxy)-phenyl]-7-((S)-1-phenyl-propyl)-2,3,6,7,8,9-hexahydro-[1,4]dioxino[2,3-g]isoquinoline-8-carbonyl]-amino}-3-(4-quinolin-4-yl-phenyl)-propionic acid]
